Like-named read-outs stand apart in the source and are kept apart here.

In one assay the target is T1, BTK-WT (Homo sapiens, UniProt Q06187).
T1 construct: purified from insect cells as a full-length construct containing an N-terminal 6X-His tag; His6 (N); made in house; host or cells: insect cells (baculovirus Sf21 in Method B)
The experiment in a line: Btk in vitro inhibitory activity (one of Method A TR-FRET, Method B electrophoretic mobility shift, Method C radiometric filter binding). It counts as biochemical. The settings on record: read-out: IC50 BTK-WT. (A gel shift assay detects complexes by their altered migration in electrophoresis.)

In the next assay the target is T2, TEC (Homo sapiens, UniProt P42680).
T2 sequence (P42680 1-631): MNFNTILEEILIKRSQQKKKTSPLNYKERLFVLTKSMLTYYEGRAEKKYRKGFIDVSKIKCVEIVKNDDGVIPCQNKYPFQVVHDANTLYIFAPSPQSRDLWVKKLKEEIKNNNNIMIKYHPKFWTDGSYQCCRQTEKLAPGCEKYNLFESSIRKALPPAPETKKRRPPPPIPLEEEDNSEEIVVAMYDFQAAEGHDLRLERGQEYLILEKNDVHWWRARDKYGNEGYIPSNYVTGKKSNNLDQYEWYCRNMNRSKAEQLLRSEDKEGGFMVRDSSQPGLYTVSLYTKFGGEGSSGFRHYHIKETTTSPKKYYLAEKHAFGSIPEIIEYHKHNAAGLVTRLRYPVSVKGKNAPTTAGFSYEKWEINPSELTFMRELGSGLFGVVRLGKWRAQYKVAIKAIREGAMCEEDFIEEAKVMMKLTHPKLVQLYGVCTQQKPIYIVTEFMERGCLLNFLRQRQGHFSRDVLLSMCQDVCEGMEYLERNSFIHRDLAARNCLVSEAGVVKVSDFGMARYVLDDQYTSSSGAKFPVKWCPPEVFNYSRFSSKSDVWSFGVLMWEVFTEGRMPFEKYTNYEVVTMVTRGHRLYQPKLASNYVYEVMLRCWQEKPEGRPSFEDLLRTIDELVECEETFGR
Briefly: Inhibition of a panel of kinases, in vitro HotSpot kinase assay: TEC. It is filed as biochemical. The procedure: The degree of inhibition of a panel of kinases is determined using the in vitro HotSpot kinase assay (purified enzymes, ^33P-ATP, an appropriate substrate and 1 μM ATP).

Where [1] appears, read: Table 13, A compounds, 1 μM ATP.

T1 sequence (Q06187 whole entry): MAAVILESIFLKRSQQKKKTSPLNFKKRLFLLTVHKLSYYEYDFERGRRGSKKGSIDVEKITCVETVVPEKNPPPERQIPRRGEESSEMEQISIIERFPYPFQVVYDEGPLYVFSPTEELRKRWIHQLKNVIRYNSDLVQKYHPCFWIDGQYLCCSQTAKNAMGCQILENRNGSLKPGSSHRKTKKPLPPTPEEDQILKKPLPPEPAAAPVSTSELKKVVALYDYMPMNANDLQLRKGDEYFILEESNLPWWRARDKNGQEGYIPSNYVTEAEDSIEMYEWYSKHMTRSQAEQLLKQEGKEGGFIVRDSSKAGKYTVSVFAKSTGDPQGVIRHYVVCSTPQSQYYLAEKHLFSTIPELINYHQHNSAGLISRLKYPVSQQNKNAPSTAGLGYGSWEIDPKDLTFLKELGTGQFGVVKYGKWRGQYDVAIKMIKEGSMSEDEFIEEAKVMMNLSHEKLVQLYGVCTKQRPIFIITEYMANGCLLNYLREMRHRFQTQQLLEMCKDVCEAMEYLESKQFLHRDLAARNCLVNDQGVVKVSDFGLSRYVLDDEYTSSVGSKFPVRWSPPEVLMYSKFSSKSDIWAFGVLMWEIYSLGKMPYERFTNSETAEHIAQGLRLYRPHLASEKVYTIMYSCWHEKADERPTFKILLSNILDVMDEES

Take `C[C@@H]1[C@H](NC(=O)c2ccc(C(C)(C)O)cc2)CCCN1c1cnc(C(N)=O)c(Nc2ccc(C3(C)CCN(C4CC4)CC3)cc2)n1` [Example E-147, 3-((4-(1-cyclopropyl-4-methylpiperidin-4-yl)phenyl)amino)-5-((2R,3R)-3-(4-(2-hydroxypropan-2-yl)benzamido)-2-methylpiperidin-1-yl)pyrazine-2-carboxamide]: the IC50 – broadly, the concentration that inhibits the measured activity by half – is at most 10 nM at BTK-WT (E compounds, Table 17) and at most 10 nM on TEC (E compounds, Table 17).
In the case of `Cn1cc(Nc2nc(N3C[C@@H](NC(=O)c4ccc(C5CC5)cc4)CC(F)(F)C3)cnc2C(N)=O)cn1` [Example A-187, (S)-5-(5-(4-cyclopropylbenzamido)-3,3-difluoropiperidin-1-yl)-3-(1-methyl-1H-pyrazol-4-ylamino)pyrazine-2-carboxamide], the IC50 on BTK-WT (Table 13, A compounds) was 100 to 1000 nM; on TEC (setting [1]), 1000 to 10000 nM.
For `C=CC(=O)N1CCC[C@@H](Nc2nnc(C(N)=O)c(Nc3ccc(-c4ncccn4)cc3)n2)C1` [Example E-41, (R)-3-(1-acryloylpiperidin-3-ylamino)-5-(4-(pyrimidin-2-yl)phenylamino)-1,2,4-triazine-6-carboxamide], the IC50 at BTK-WT (E compounds, Table 17) was at most 10 nM; against TEC (E compounds, Table 17), at most 10 nM.
For the compound `CN(C)C(=O)N[C@@H]1CCCN(c2cnc(C(N)=O)c(Nc3ccc(C4(C)CCN(C5CCCC5)CC4)cc3)n2)[C@@H]1CO` [Example A-101, 3-{[4-(1-cyclopentyl-4-methylpiperidin-4-yl)phenyl]amino}-5-[(2S,3R)-3-[(dimethylcarbamoyl)amino]-2-(hydroxymethyl)piperidin-1-yl]pyrazine-2-carboxamide], the IC50 at BTK-WT (Table 13, A compounds) was at most 10 nM; at TEC (setting [1]) it was 100 to 1000 nM.
Regarding `C[C@@H]1[C@H](NC(=O)c2ccc(C(C)(C)N3CCCC3)cc2)CCCN1c1cnc(C(N)=O)c(Nc2cnn(C)c2)n1` [Example E-143, 3-((1-methyl-1H-pyrazol-4-yl)amino)-5-((2R,3R)-2-methyl-3-(4-(2-(pyrrolidin-1-yl)propan-2-yl)benzamido)piperidin-1-yl)pyrazine-2-carboxamide], the IC50 on BTK-WT (E compounds, Table 17) was at most 10 nM; against TEC (E compounds, Table 17), at most 10 nM.
Turning to `C[C@@H]1[C@H](NC(=O)c2ccc(C3CC3)cc2F)CCCN1c1cnc(C(N)=O)c(Nc2cnn(C)c2)c1` [Example A-127, 5-[(2R,3R)-3-(4-cyclopropyl-2-fluorobenzamido)-2-methylpiperidin-1-yl]-3-[(1-methyl-1H-pyrazol-4-yl)amino]pyridine-2-carboxamide], the IC50 lay within 10 to 100 nM on BTK-WT (Table 13, A compounds) and 100 to 1000 nM against TEC (setting [1]).
The like results for `Cc1cc(Nc2nc(N3CCC[C@@H](NC(=O)N4Cc5ccccc5C4=O)C3)cnc2C(N)=O)sn1` [Example A-183, N-[(3R)-1-{5-carbamoyl-6-[(3-methyl-1,2-thiazol-5-yl)amino]pyrazin-2-yl}piperidin-3-yl]-1-oxo-2,3-dihydro-1H-isoindole-2-carboxamide] were, in that order, at most 10 nM and 10 to 100 nM.
Turning to `C=CC(=O)N[C@@H]1CCCN(c2nnc(C(N)=O)c(Nc3ccc(Cl)cc3)n2)[C@@H]1C` [Example E-5, 3-((2R,3R)-3-acrylamido-2-methylpiperidin-1-yl)-5-((4-chlorophenyl)amino)-1,2,4-triazine-6-carboxamide], the IC50 was at most 10 nM at BTK-WT (E compounds, Table 17) and at most 10 nM against TEC (E compounds, Table 17).
Consider `C[C@@H]1CCN(c2cnc(C(N)=O)c(Nc3cnn(C)c3)n2)C[C@@H]1NC(=O)c1ccc(C2CC2)cc1` [Example E-140, 5-((3R,4R)-3-(4-cyclopropylbenzamido)-4-methylpiperidin-1-yl)-3-((1-methyl-1H-pyrazol-4-yl)amino)pyrazine-2-carboxamide], for which the IC50 at BTK-WT (E compounds, Table 17) was in the range of 100 to 1000 nM; on TEC (E compounds, Table 17), 1000 to 10000 nM.
The like results for `C[C@@H]1[C@H](NC(=O)c2ccc(C3CC3)cc2)CCCN1c1cnc(C(N)=O)c(Nc2cnc(C3CCOCC3)nc2)n1` [Example E-144, 5-((2R,3R)-3-(4-cyclopropylbenzamido)-2-methylpiperidin-1-yl)-3-((2-(tetrahydro-2H-pyran-4-yl)pyrimidin-5-yl)amino)pyrazine-2-carboxamide] were, in that order, 10 to 100 nM and 100 to 1000 nM.
